Source: US9371295B2, “Compounds for use in the treatment of disorders that are ameliorated by inhibition of HDAC” (IRBM—Science Park S.p.A., priority 2012, dated 2016)

Key:
[1] = test system: human γ-globin promoter (EGFP reporter) in K562 cells; assay: HbF activation assay on K562 (EGFP/RFP reporter model system for screening of inducers of fetal hemoglobin); format: cell-based; details: 60 hours
Text: In order to test several compounds, a model system was produced based on previous findings present in the literature. The K562 erythroid-like cell lines, isolated and characterized by Lozzio & Lozzio (Blood, 45(3), pp 321-334) from a patient with chronic myelogenous leukemia in blast crisis, have been extensively employed as a useful in vitro model to study the molecular mechanism(s) regulating the expression of embryonic and fetal human globin genes, as well as for screening of new differentiation-inducing compounds. A stable cell line where reporter genes encoding green EGFP and far-red fluorescent protein red-FP are placed under the control of the human γ-globin or β-globin promoters respectively was used (see Vadolas et al, Hum. Mol. Genet. 2004, 13, 2, 223-233 for details). The modified 3-cluster also contains the upstream regulatory region called LCR. This cell line grows in suspension at 37° C. and 5% CO2 in humidified atmosphere in the following medium: DMEM, 10% foetal bovine serum, glutamine and antibiotics (penicillin and streptomycin);
The assay procedures is as follows: • Single concentration compounds or serially diluted samples are transferred to an empty assay plates by a spotter (ATS-100, EDC Biosystems, USA) in order to have a final concentration of DMSO of 0.25% in 50 μL of cell culture. Source plats contains compounds dissolved in 100% DMSO • Black, transparent bottom, 384 wells, tissue culture treated plates are used as assay plates. • Assay plates containing spotted compounds are filled with a suspension of cell in the described assay medium. The final cell concentration is of 1000 cells per well. • Cells are incubated in humidified atmosphere, 37° C.-5% CO2, for 60 hours • Cell nuclei are stained by adding 10 ul (6 μM; 1 μM final) Hoechst 33342 (Life Technologies, USA) • The cell associated intensity is read by a plate based cytometer (ACUMEN explorer, TTP Labtech, UK) • The nuclei count is used to assess the cell proliferation/death and to normalize the total EGFP/RFP intensity. HbF Activation Assay in Human Cell Line K562
The compounds of the invention were tested in the HbF activation assay on K562, as model system for screening of potential inducers of fetal hemoglobin.

[2] = target: T1, HDAC1 (Homo sapiens, UniProt Q13547); assay: HDAC1 assay (Fluor-de-Lys fluorescent deacetylase assay); format: biochemical; details: read-out: hHDAC IC50
T1 construct: made in house
T1 sequence (Q13547 whole entry): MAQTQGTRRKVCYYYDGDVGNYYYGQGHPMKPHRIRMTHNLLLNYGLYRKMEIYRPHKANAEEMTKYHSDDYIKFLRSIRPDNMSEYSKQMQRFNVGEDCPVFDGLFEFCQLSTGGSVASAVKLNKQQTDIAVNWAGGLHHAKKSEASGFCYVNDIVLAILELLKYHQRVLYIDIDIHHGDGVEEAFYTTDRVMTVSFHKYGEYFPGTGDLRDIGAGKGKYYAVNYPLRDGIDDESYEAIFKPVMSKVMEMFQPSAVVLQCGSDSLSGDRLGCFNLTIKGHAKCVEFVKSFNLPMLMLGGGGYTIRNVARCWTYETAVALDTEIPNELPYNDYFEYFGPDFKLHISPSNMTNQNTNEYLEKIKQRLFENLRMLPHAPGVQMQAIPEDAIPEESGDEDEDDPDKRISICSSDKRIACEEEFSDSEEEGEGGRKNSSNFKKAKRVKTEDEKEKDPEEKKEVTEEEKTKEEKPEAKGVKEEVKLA
Method: The HDAC1 assay is used to quantify the histone deacetylase (HDAC) activity. The assay is performed in 384 well microtiter plates by pre-incubating serial dilutions of the compounds with a fixed concentration of HeLa nuclear extract or purified HDAC1 and then adding an acetylated lysine-containing substrate/developer that fluoresces upon deacetylation.
Reagents of the HDAC Fluorescent Activity Assay are purchased from BioMol Research Laboratories (Plymouth Meeting, Pa.) and feature the Fluor-de-Lys™ Substrate/Developer System.
TSA Stock: TSA is provided as a 10 mM stock solution in 100% dimethylsulfoxide (DMSO). […] The final concentration in the assay is 20 uM.
3 uM [final] TSA to this solution increases its ability to stop the reaction.
HDAC1 Working Solution: The HDAC1 enzyme is diluted in assay buffer prior to each use from a fresh aliquot of enzyme. The final concentration in the assay is 1-2 nM.
Compounds: Test compounds are directly transferred from a 100% DMSO solution into assay plates by spotting nanoliters of solutions by an acoustic dispenser (ATS-100, EDC biosystems, US).
HeLa cells transiently transfected with pCDNA3-HDAC1-FLAG are grown to 80% confluence on 10 cm culture dishes in DMEM, 10% Fetal bovine serum supplemented with antibiotics and glutamine. Cells are washed with 10 ml cold PBS and scraped into 2 ml of PBS. Cells are centrifuged for 5 minutes at 800×g at 4° C., washed with 30 ml PBS and resuspended in 10 ml PBS, counted, re-centrifuged and frozen at −80° C.
The frozen cell pellet is re-suspended in 1 ml of hypotonic lysis buffer (LB: 20 mM Hepes pH7.9, 0.25 mM EDTA, 10% glycerol) containing COMPLETE protease inhibitor and incubated on ice for 15 minutes, followed by homogenization on a 2-ml DounceB homogenizer (25 strokes). 150 mM KCl and 0.5% NP-40 are added to the homogenate and the solution is sonicated twice for 30 seconds (output5/6, duty cycle 90) and incubated for 1 hour at 4° C. After a 30 minutes centrifugation at 12000 rpm and 4° C. the supernatant (soluble extract) is collected and protein concentration is determined using the BIORAD assay.
Anti-FLAG M2 affinity resin (Sigma) is washed three times with TBS and twice with LB. 10 μl of the LB-washed resin/mg of protein (2-3 ug of Flagged-HDAC1) are added to the soluble extract (1 mL) and incubated overnight at 4° C. with gentle mixing. The resin is then collected by centrifugation, washed once with LB, twice with LB+0.1% NP40 and twice with elution buffer (50 mM Hepes pH 7.4, 5% glycerol, 100 mM KCl, 0.01% Triton X-100).
The concentration of purified HDAC is determined by Western blot analysis.

[3] = test system: HDAC in Hela cells; assay: HDAC Hela Cell Based assay

SMILES | EC50 [1] | IC50 [2] | IC50 [3]
CCC(=O)CCCCC[C@H](NC(=O)Cc1c(C)[nH]c2ccc(OC)cc12)c1ncc(-c2cc3ccccc3nc2OC)o1 [Compound 1, (S)-2-(5-methoxy-2-methyl-1H-indol-3-yl)-N-(1-(5-(2-methoxyquinolin-3-yl)oxazol-2-yl)-7-oxononyl)acetamide] | > 1000 nM | < 100 nM | 100 to 1000 nM
CCC(=O)CCCCC[C@H](NC(=O)C1CCN(C)CC1)c1ncc(-c2ccccc2)o1 [Compound 3, (S)-1-methyl-N-(7-oxo-1-(5-phenyloxazol-2-yl)nonyl)piperidine-4-carboxamide] | > 1000 nM | < 100 nM | > 1000 nM
CCC(=O)CCCCC[C@H](NC(=O)Cc1c(C)[nH]c2ccc(OC)cc12)c1ncc(-c2ccccc2)o1 [Compound 4, (S)-2-(5-methoxy-2-methyl-1H-indol-3-yl)-N-(7-oxo-1-(5-phenyloxazol-2-yl)nonyl)acetamide] | > 1000 nM | < 100 nM | > 1000 nM
CCC(=O)CCCCC[C@H](NC(=O)C1CCN(C)CC1)c1ncc(-c2cccc3c2OCCO3)o1 [Compound 5] | > 1000 nM | < 100 nM | > 1000 nM
CCC(=O)CCCCC[C@H](NC(=O)c1cncs1)c1ncc(-c2ccccc2)o1 [Compound 6, (S)-N-(7-oxo-1-(5-phenyloxazol-2-yl)nonyl)thiazole-5-carboxamide] | > 1000 nM | < 100 nM | > 1000 nM
CCC(=O)CCCCC[C@H](NC(=O)CCN(C)C)c1ncc(-c2ccccc2)o1 [Compound 7, (S)-3-(dimethylamino)-N-(7-oxo-1-(5-phenyloxazol-2-yl)nonyl)propanamide] | > 1000 nM | < 100 nM | > 1000 nM
CCC(=O)CCCCC[C@H](NC(=O)C1CCN(C)C1)c1ncc(-c2ccccc2)o1 (stereo partly drawn) [Compound 8, 1-methyl-N-((S)-7-oxo-1-(5-phenyloxazol-2-yl)nonyl)pyrrolidine-3-carboxamide] | > 1000 nM | < 100 nM | > 1000 nM
CCC(=O)CCCCC[C@H](NC(=O)C(C)(C)N(C)C)c1ncc(-c2ccccc2)o1 [Compound 9, (S)-2-(dimethylamino)-2-methyl-N-(7-oxo-1-(5-phenyloxazol-2-yl)nonyl)propanamide] | > 1000 nM | < 100 nM | > 1000 nM
CCC(=O)CCCCC[C@H](NC(=O)[C@@H]1CSC(=O)N1)c1ncc(-c2ccccc2)o1 [Compound 13, (R)-2-oxo-N-((S)-7-oxo-1-(5-phenyloxazol-2-yl)nonyl)thiazolidine-4-carboxamide] | > 1000 nM | < 100 nM | > 1000 nM
CCC(=O)CCCCC[C@H](NC(=O)c1ccnc(Cl)c1)c1ncc(-c2ccccc2)o1 [Compound 14, (S)-2-chloro-N-(7-oxo-1-(5-phenyloxazol-2-yl)nonyl)isonicotinamide] | > 1000 nM | 100 to 1000 nM | > 1000 nM
CCC(=O)CCCCC[C@H](NC(=O)CN1CCN(C)CC1)c1ncc(-c2ccccc2)o1 [Compound 15, (S)-2-(4-methylpiperazin-1-yl)-N-(7-oxo-1-(5-phenyloxazol-2-yl)nonyl)acetamide] | > 1000 nM | 100 to 1000 nM | > 1000 nM
CCC(=O)CCCCC[C@H](NC(=O)Cn1c(C)nc2ccccc21)c1ncc(-c2ccccc2)o1 [Compound 18, (S)-2-(2-methyl-1H-benzo[d]imidazol-1-yl)-N-(7-oxo-1-(5-phenyloxazol-2-yl)nonyl)acetamide] | > 1000 nM | 100 to 1000 nM | > 1000 nM
CCC(=O)CCCCC[C@H](NC(=O)C1CCCCCN1C)c1ncc(-c2ccccc2)o1 (stereo partly drawn) [Compound 21, 1-methyl-N-((S)-7-oxo-1-(5-phenyloxazol-2-yl)nonyl)azepane-2-carboxamide] | > 1000 nM | 100 to 1000 nM | > 1000 nM
CCC(=O)CCCCC[C@H](NC(=O)CCC1CCCN(C)C1)c1ncc(-c2ccccc2)o1 (stereo partly drawn) [Compound 25, 3-(1-methylpiperidin-3-yl)-N-((S)-7-oxo-1-(5-phenyloxazol-2-yl)nonyl)propanamide] | > 1000 nM | 100 to 1000 nM | > 1000 nM
CCC(=O)CCCCC[C@H](NC(=O)CCn1c(CC)nc2ccccc21)c1ncc(-c2ccccc2)o1 [Compound 26, (S)-3-(2-ethyl-1H-benzo[d]imidazol-1-yl)-N-(7-oxo-1-(5-phenyloxazol-2-yl)nonyl)propanamide] | > 1000 nM | 100 to 1000 nM | > 1000 nM
CCC(=O)CCCCC[C@H](NC(=O)CCn1c(CC)nc2ccccc21)c1ncc(-c2cc3ccccc3nc2OC)o1 [Compound 29, (S)-3-(2-ethyl-1H-benzo[d]imidazol-1-yl)-N-(1-(5-(2-methoxyquinolin-3-yl)oxazol-2-yl)-7-oxononyl)propanamide] | 100 to 1000 nM | < 100 nM | < 100 nM
CCC(=O)CCCCC[C@H](NC(=O)C1CN(C)C1)c1ncc(-c2ccccc2)o1 [Compound 32, (S)-1-methyl-N-(7-oxo-1-(5-phenyloxazol-2-yl)nonyl)azetidine-3-carboxamide] | > 1000 nM | < 100 nM | > 1000 nM
CCC(=O)CCCCC[C@H](NC(=O)C1CCN(C)C1)c1ncc(-c2cc3ccccc3nc2OC)o1 (stereo partly drawn) [Compound 34, N-((S)-1-(5-(2-methoxyquinolin-3-yl)oxazol-2-yl)-7-oxononyl)-1-methylpyrrolidine-3-carboxamide] | 100 to 1000 nM | < 100 nM | 100 to 1000 nM
CCC(=O)CCCCC[C@H](NC(=O)C(C)(C)N(C)C)c1ncc(-c2cc3ccccc3nc2OC)o1 [Compound 35, (S)-2-(dimethylamino)-N-(1-(5-(2-methoxyquinolin-3-yl)oxazol-2-yl)-7-oxononyl)-2-methylpropanamide] | 100 to 1000 nM | < 100 nM | < 100 nM
CCC(=O)CCCCC[C@H](NC(=O)C(=O)N(C)C)c1ncc(-c2cc3ccccc3nc2OC)o1 [Compound 36, (S)-N1-(1-(5-(2-methoxyquinolin-3-yl)oxazol-2-yl)-7-oxononyl)-N2,N2-dimethyloxalamide] | > 1000 nM | 100 to 1000 nM | 100 to 1000 nM
CCC(=O)CCCCC[C@H](NC(=O)CCN(C)C)c1ncc(-c2cc3ccccc3nc2OC)o1 [Compound 38, (S)-3-(dimethylamino)-N-(1-(5-(2-methoxyquinolin-3-yl)oxazol-2-yl)-7-oxononyl)propanamide] | 100 to 1000 nM | < 100 nM | < 100 nM
CCC(=O)CCCCC[C@H](NC(=O)c1cncs1)c1nnc(-c2cc3ccccc3nc2OC)o1 [Compound 49, (S)-N-(1-(5-(2-methoxyquinolin-3-yl)-1,3,4-oxadiazol-2-yl)-7-oxononyl)thiazole-5-carboxamide] | > 1000 nM |  | 100 to 1000 nM
